Experimental data published in patent publication US4495104A, “Quinone carboxylic acids and ester derivatives” (Takeda Chemical Industries, Ltd., priority 1980, dated 1985).

Experiments:
SRS-A production = assay: Inhibition of SRS-A production and release in sensitized guinea-pig lung fragments (egg albumin antigen); type: cell-based, quinea-pig; conditions: lung fragments sensitized with egg albumin, compound dissolved in ethanol or dimethyl sulfoxide, read-out: Inhibitory effect on SRS-A production (%); for inhibition at 10 µM: concentration 10 μM
Procedure: Further, we investigated the effect of the present compound (I) on the production and release of the slow reacting substance of anaphylaxis (hereinafter, SRS-A) which has been mentioned as a main factor in asthma. Thus, in accordance with the method of Orange and Moore (J. Immunol., 116, 392-397, 1976), the present compound (I) was added to a quinea-pig lung fragments sensitized with egg albumin as the antigen, and the amount of SRS-A produced and released as a consequence was assayed by the method of Brocklehurst (J. Physiol., 151, 416-435, 1960).
^(1) The compound was added as dissolved in ethanol or dimethyl
^(2) The inhibitory effect on SRSA production was expressed as the %
inhibition of production and release of SRSA.

succinate oxidase = assay: Mitochondrial electron-transport activity determined as succinate oxidase activity in ubiquinone-depleted enzyme preparations; type: biochemical; conditions: level of addition 10 n moles; ubiquinone-depleted enzyme preparation; control 19.34 ± 1.42
Procedure: ^(1) Ubiquinonedepleted enzyme preparations were prepared in
accordance with Lester and Fleischer (Biochem. Biophys. Acta., 47,358-377
1961). The electrontransport activity was determined based on succinate

SMILES	inhibition at 1 µM (SRS-A production; concentration 1 μM) [%]	inhibition at 10 µM (SRS-A production) [%]	Succinate oxidase activity [oxygen consumption per mg enzyme protein during 1 minute (n atoms oxygen)] (succinate oxidase) [n atoms oxygen]
COC1=C(OC)C(=O)C(CCCCCCCCCCCCC(=O)O)=C(C)C1=O [R:H, n:12, 6-(12-carboxydodecyl)-2,3-dimethoxy-5-methyl-1,4-benzoquinone]	60 ± 3.3	87.2 ± 5.5	96.05
COC1=C(OC)C(=O)C(CCCCCCCCCCCCCCCCCC(=O)O)=C(C)C1=O [R:H, n:17, 6-(17-carboxyheptadecyl)-2,3-dimethoxy-5-methyl-1,4-benzoquinone]	–	82.8 ± 4.4	112.05
COC1=C(OC)C(=O)C(CCCCCCCCCCCCCCCCCCCCCC(=O)O)=C(C)C1=O [R:H, n:21, 6-(21-carboxyheneicosyl)-2,3-dimethoxy-5-methyl-1,4-benzoquinone]	–	80.5 ± 0.5	–
COC(=O)CCCCCCCCCCCCC1=C(C)C(=O)C(OC)=C(OC)C1=O [n:12 R:CH3, 2,3-dimethoxy-6-(12-methoxycarbonyldodecyl)-5-methyl-1,4-benzoquinone]	–	–	146.10
